Data published in patent US9028845B2, “Chimeric immunomodulatory compounds and methods of using the same-IV” (Dynavax Technologies Corporation, priority 2001, dated 2015).

What was measured:
CD19+ B cells = experiment: Human B cell proliferation assay (3H-thymidine incorporation); conditions: 2 μg/ml; for cpm1 / cpm2 / cpm3 / mean cpm / mean of both: B cells
Experimental: Purified human B cells from 2 donors were stimulated with 5 μg/ml P-6 or CIC for 96 h. Proliferation was assessed by ^3H-thymidine incorporation.
A CIC is considered to induce “little” human B cell proliferation if B cell proliferation in the presence of the CIC is between greater than 15 to about 30% of P-6.
Human PBMCs were isolated from heparanized blood from two normal subjects. Some PBMCs were held in reserve while the remainder was incubated with CD19+ MACS beads (Miltenyi Biotec). These cells were then passed through a magnet, separating the CD19+ B cells through positive selection. […] B cells were then cultured at 1×10^5/200 μl/well in 96-well round-bottomed plates. In some cases, PBMCs were also cultured, but at 2×10^5/200 μl/well. Cells were stimulated in triplicate with 2 μg/ml polynucleotide or CIC. The culture period was 48 hours at 37° C. At the end of the culture period, the plates were pulsed with ^3H-thymidine, 1 μCi/well, and incubated for an additional 8 hours. Then the plates were harvested using standard liquid scintillation techniques and data was collected in counts per minutes (cpm).

PBMCs = experiment: Human PBMC proliferation assay (3H-thymidine incorporation); assay type: cell-based; conditions: Experiment A; for mean cpm: 2 μg/ml
human PBMCs = experiment: Human PBMC cytokine response assay (IFN-γ and IFN-α in cell-free medium by ELISA), with or without cPLGA; assay type: cell-based;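 for IFN-α (pg/ml) mean: 20 µg/mL compound for 24 hours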;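 for IFN-γ (pg/ml) mean: 20 µg/mL compound for 24 hours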
mouse splenocytes = experiment: Mouse splenocyte cytokine secretion (IL-6, IL-12, IFN by ELISA); assay type: cell-based, BALB/c mice; parameters: IFN: unit not given beside the values; conditions: 24 h
Experimental: Polynucleotides and chimeric compounds were tested for immunostimulatory activity on mouse splenocytes. Immunostimulation was assessed by measurement of cytokine secretion into the culture media. Cytokine levels in the culture supernatant were determined by enzyme-linked immunosorbent assay (ELISA) tests.
Cells were isolated and prepared using standard techniques. Spleens of 8 to 20 week-old BALB/c mice were harvested and the splenocytes isolated using standard teasing and treatment with ACK lysing buffer from BioWhittaker, Inc. Four spleens were pooled in this experiment. Isolated cells were washed in RPMI 1640 media supplemented with 2% heat-inactivated fetal calf serum (FCS), 50 μM 2-mercaptoethanol, 1% penicillin-streptomycin, and 2 mM L-glutamine and resuspended at approximately […] in 10% FCS/RPMI (RPMI 1640 media with 10% heat-inactivated FCS, 50 μM 2-mercaptoethanol, 1% penicillin-streptomycin, and 2 mM L-glutamine).
Cell cultures were set up in triplicate with approximately 7×10^5 cells/well in a 96-well flat microtiter plate in 100 μl 10% FCS/RPMI with the cells allowed to rest for at lest 1 hour after plating. The indicated test compounds were incubated (at the indicated concentrations) for 24 hours at 37° C. Cell supernatants were harvested and frozen at −80° C. Cytokine production by the cells was determined by ELISAs, as shown in 19.

[1] = mean of donors 121 and 194, Experiment B
[2] = Table 24, mean of donors 28234-28237
[3] = donor 28066, 20 ug/ml, 24 h, + PLGA = premixed with 100 μg/ml cPLGA
[4] = donor 28067, 20 ug/ml, 24 h, + PLGA = premixed with 100 μg/ml cPLGA
[5] = donor 28068, 20 ug/ml, 24 h, + PLGA = premixed with 100 μg/ml cPLGA
[6] = mean of donors 110, 112, 119, 120, Table 14
[7] = mean of donors 28065-28068, 20 ug/ml, 24 h, + PLGA = premixed with 100 μg/ml cPLGA
[8] = mean of donors 28185-28188, Table 15
[9] = Donor 5, 20 μg/ml (mixtures: 20 μg/ml total), 24 h
[10] = Donor 6, 20 μg/ml (mixtures: 20 μg/ml total), 24 h
[11] = mean of Donors 1-2, 20 μg/ml, 24 h
[12] = mean of Donors 5-6, 20 μg/ml (mixtures: 20 μg/ml total), 24 h
[13] = mean of Donors 7-8, 20 μg/ml, 24 h

For “(5′-TCGTCGA-3′)2-glycerol-5′-TCGTCGA-3′ [Compound C-28]”, the “B cell proliferation, in words” value (CD19+ B cells; 48 h plus 8 h 3H-thymidine pulse) was “cause B cells to proliferate”, the cpm1 (CD19+ B cells; Donor 146, Experiment A) was 50999 cpm and the cpm2 (CD19+ B cells; Donor 146, Experiment A) was 54630 cpm. For the same substance, the cpm3 (CD19+ B cells; Donor 146, Experiment A) was 46418 cpm, the mean cpm (CD19+ B cells; Donor 146 mean, Experiment A) was 50682 cpm and the cpm1 (CD19+ B cells; Donor 147, Experiment A) was 65593 cpm. For the same substance, the cpm2 (CD19+ B cells; Donor 147, Experiment A) was 51040 cpm, the cpm3 (CD19+ B cells; Donor 147, Experiment A) was 50357 cpm and the mean cpm (CD19+ B cells; Donor 147 mean, Experiment A) was 55663 cpm. The cpm1 (CD19+ B cells; donor 121, Experiment B) was 35393 cpm, the cpm2 (CD19+ B cells; donor 121, Experiment B) was 26954 cpm and the cpm3 (CD19+ B cells; donor 121, Experiment B) was 26780 cpm. The mean cpm (CD19+ B cells; donor 121 mean, Experiment B) was 29709 cpm, the cpm1 (CD19+ B cells; donor 194, Experiment B) was 21588 cpm and the cpm2 (CD19+ B cells; donor 194, Experiment B) was 13691 cpm. For the same substance, the cpm3 (CD19+ B cells; donor 194, Experiment B) was 15691 cpm, the mean cpm (CD19+ B cells; donor 194 mean, Experiment B) was 16990 cpm and the mean of both (CD19+ B cells; mean of Donors 146 and 147, Experiment A) was 53173 cpm. The mean of both (CD19+ B cells; [1]) was 23350 cpm, the cpm1 (PBMCs; Donor 146, 2 μg/ml) was 94977 cpm and the cpm2 (PBMCs; Donor 146, 2 μg/ml) was 121595 cpm. For the same substance, the cpm3 (PBMCs; Donor 146, 2 μg/ml) was 84977 cpm, the mean cpm (PBMCs; Donor 146 mean) was 100516 cpm and the cpm1 (PBMCs; Donor 147, 2 μg/ml) was 103916 cpm. The cpm2 (PBMCs; Donor 147, 2 μg/ml) was 91439 cpm, the cpm3 (PBMCs; Donor 147, 2 μg/ml) was 100905 cpm and the mean cpm (PBMCs; Donor 147 mean) was 98753 cpm. For the same substance, the mean of both (PBMCs; mean of Donors 146 and 147, 2 μg/ml) was 99635 cpm, the IFN-α (human PBMCs; Table 9, donor 28089) was 0 pg/mL and the IFN-γ (human PBMCs; Table 9, donor 28089) was 14 pg/mL. For the same substance, the IFN-α (human PBMCs; Table 9, donor 28090) was 64 pg/mL, the IFN-γ (human PBMCs; Table 9, donor 28090) was 15 pg/mL and the IFN-α (human PBMCs; Table 9, donor 28098) was 42 pg/mL. For the same substance, the IFN-γ (human PBMCs; Table 9, donor 28098) was 183 pg/mL, the IFN-α (human PBMCs; Table 9, donor 28099) was 67 pg/mL and the IFN-γ (human PBMCs; Table 9, donor 28099) was 45 pg/mL. For the same substance, the IFN-α mean (human PBMCs; Table 9, mean of donors) was 43 pg/mL, the IFN-γ mean (human PBMCs; Table 9, mean of donors) was 64 pg/mL and the IFN-α (human PBMCs; Table 24, donor 28234) was 16 pg/mL. For the same substance, the IFN-γ (human PBMCs; Table 24, donor 28234) was 10 pg/mL, the IFN-α (human PBMCs; Table 24, donor 28235) was 16 pg/mL and the IFN-γ (human PBMCs; Table 24, donor 28235) was 14 pg/mL. It also gave an IFN-α (human PBMCs; Table 24, donor 28236) of 16 pg/mL, an IFN-γ (human PBMCs; Table 24, donor 28236) of 88 pg/mL and an IFN-α (human PBMCs; Table 24, donor 28237) of 16 pg/mL. The IFN-γ (human PBMCs; Table 24, donor 28237) was 1229 pg/mL, the IFN-α mean (human PBMCs; [2]) was 16 pg/mL and the IFN-γ mean (human PBMCs; [2]) was 335 pg/mL. The “IFN-α” value (human PBMCs; donor 110, Table 14) was 38 pg/mL, the “IFN-γ” value (human PBMCs; donor 110, Table 14) was 5564 pg/mL and the “IFN-α” value (human PBMCs; donor 112, Table 14) was 4 pg/mL. The “IFN-γ” value (human PBMCs; donor 112, Table 14) was 52 pg/mL, the “IFN-α” value (human PBMCs; donor 119, Table 14) was 56 pg/mL and the “IFN-γ” value (human PBMCs; donor 119, Table 14) was 44 pg/mL. For the same substance, the “IFN-α” value (human PBMCs; donor 120, Table 14) was 26 pg/mL, the “IFN-γ” value (human PBMCs; donor 120, Table 14) was 60 pg/mL and the “IFN-γ (pg/ml) 28065” value (human PBMCs; donor 28065 (high background), 20 ug/ml, 24 h, + PLGA = premixed with 100 μg/ml cPLGA, 1000 = outside assay limits) was 1082 pg/mL. The “IFN-α (pg/ml) 28065” value (human PBMCs; donor 28065, 20 ug/ml, 24 h, + PLGA = premixed with 100 μg/ml cPLGA) was 3 pg/mL, the “IFN-α (pg/ml) 28066” value (human PBMCs; [3]) was 0 pg/mL and the “IFN-γ (pg/ml) 28066” value (human PBMCs; [3]) was 5 pg/mL. For the same substance, the “IFN-α (pg/ml) 28067” value (human PBMCs; [4]) was 29 pg/mL, the “IFN-γ (pg/ml) 28067” value (human PBMCs; [4]) was 42 pg/mL and the “IFN-α (pg/ml) 28068” value (human PBMCs; [5]) was 52 pg/mL. The “IFN-γ (pg/ml) 28068” value (human PBMCs; [5]) was 410 pg/mL, the “IFN-a” value (human PBMCs; donor 28185, Table 15) was 14 pg/mL and the “IFN-g” value (human PBMCs; donor 28185, Table 15) was 162 pg/mL. For the same substance, the “IFN-a” value (human PBMCs; donor 28186, Table 15) was 4 pg/mL, the “IFN-g” value (human PBMCs; donor 28186, Table 15) was 24 pg/mL and the “IFN-a” value (human PBMCs; donor 28187, Table 15) was 0 pg/mL. For the same substance, the “IFN-g” value (human PBMCs; donor 28187, Table 15) was 75 pg/mL, the “IFN-a” value (human PBMCs; donor 28188, Table 15) was 4 pg/mL and the “IFN-g” value (human PBMCs; donor 28188, Table 15) was 5 pg/mL. The “IFN-α (pg/ml) mean” value (human PBMCs; [6]) was 31 pg/mL, the “IFN-γ (pg/ml) mean” value (human PBMCs; [6]) was 1430 pg/mL and the “IFN-α (pg/ml) mean” value (human PBMCs; [7]) was 21 pg/mL. The “IFN-γ (pg/ml) mean” value (human PBMCs; [7]) was 385 pg/mL, the “IFN-a (pg/ml) mean” value (human PBMCs; [8]) was 6 pg/mL and the “IFN-g (pg/ml) mean” value (human PBMCs; [8]) was 66 pg/mL. For the same substance, the “IFN-a (pg/ml) ×2” value (human PBMCs; mean ×2, Table 15) was 11 pg/mL, the “IFN-g (pg/ml) ×4” value (human PBMCs; mean ×4, Table 15) was 266 pg/mL and the “IFN-α induction, in words” value (human PBMCs; used alone) was “HEG (C-94)>TEG (C-103)>C3 (C-104)=no linker (C-28)”.
“5′-TCGTCG-3′- C3-5′-ACGTTCG-3′-C3-5′-AGATGAT-3′ [Compound C-11]” was tested, and the cpm1 (CD19+ B cells; donor 121, Experiment B) was 30367 cpm, the cpm2 (CD19+ B cells; donor 121, Experiment B) was 30412 cpm and the cpm3 (CD19+ B cells; donor 121, Experiment B) was 18528 cpm. The mean cpm (CD19+ B cells; donor 121 mean, Experiment B) was 26436 cpm, the cpm1 (CD19+ B cells; donor 194, Experiment B) was 16967 cpm and the cpm2 (CD19+ B cells; donor 194, Experiment B) was 20898 cpm. The cpm3 (CD19+ B cells; donor 194, Experiment B) was 11253 cpm, the mean cpm (CD19+ B cells; donor 194 mean, Experiment B) was 16373 cpm and the mean of both (CD19+ B cells; [1]) was 21404 cpm. For the same substance, the “IFN-α (pg/ml) Donor 1” value (human PBMCs; Donor 1, 20 μg/ml, 24 h) was 119 pg/mL, the “IFN-γ (pg/ml) Donor 1” value (human PBMCs; Donor 1, 20 μg/ml, 24 h) was 2308 pg/mL and the “IFN-α (pg/ml) Donor 2” value (human PBMCs; Donor 2, 20 μg/ml, 24 h) was 0 pg/mL. The “IFN-γ (pg/ml) Donor 2” value (human PBMCs; Donor 2, 20 μg/ml, 24 h) was 270 pg/mL, the “IFN-α (pg/ml) Donor 5” value (human PBMCs; [9]) was 76 pg/mL and the “IFN-γ (pg/ml) Donor 5” value (human PBMCs; [9]) was 25 pg/mL. The “IFN-α (pg/ml) Donor 6” value (human PBMCs; [10]) was 175 pg/mL, the “IFN-γ (pg/ml) Donor 6” value (human PBMCs; [10]) was 792 pg/mL and the “IFN-α (pg/ml) Donor 7” value (human PBMCs; Donor 7, 20 μg/ml, 24 h) was 6 pg/mL. The “IFN-γ (pg/ml) Donor 7” value (human PBMCs; Donor 7, 20 μg/ml, 24 h) was 5 pg/mL, the “IFN-α (pg/ml) Donor 8” value (human PBMCs; Donor 8, 20 μg/ml, 24 h) was 56 pg/mL and the “IFN-γ (pg/ml) Donor 8” value (human PBMCs; Donor 8, 20 μg/ml, 24 h) was 419 pg/mL. The “IFN-α (pg/ml) mean” value (human PBMCs; [11]) was 59 pg/mL, the “IFN-γ (pg/ml) mean” value (human PBMCs; [11]) was 1289 pg/mL and the “IFN-α (pg/ml) mean” value (human PBMCs; [12]) was 126 pg/mL. For the same substance, the “IFN-γ (pg/ml) mean” value (human PBMCs; [12]) was 409 pg/mL, the “IFN-α (pg/ml) mean” value (human PBMCs; [13]) was 31 pg/mL and the “IFN-γ (pg/ml) mean” value (human PBMCs; [13]) was 212 pg/mL. The “immunomodulatory activity (IFN-γ / IFN-α secretion), in words” value (human PBMCs; used alone (no cPLGA)) was “did have immunomodulatory activity”, the IFN (mouse splenocytes; dose 0.1 μg/ml) was 960 and the IL-6 (mouse splenocytes; dose 0.1 μg/ml) was 458. The IL-12 (mouse splenocytes; dose 0.1 μg/ml) was 3359, the IFN (mouse splenocytes; dose 1.0 μg/ml) was 3220 and the IL-6 (mouse splenocytes; dose 1.0 μg/ml) was 11814. It also gave an IL-12 (mouse splenocytes; dose 1.0 μg/ml) of 4914, an IFN (mouse splenocytes; dose 5.0 μg/ml) of 3342 and an IL-6 (mouse splenocytes; dose 5.0 μg/ml) of 10098. It also gave an IL-12 (mouse splenocytes; dose 5.0 μg/ml) of 4279.
